Experimental data taken from patent US20080220056A1, “Treatment for liver disease” (UNIVERSITY OF SOUTHAMPTON, priority 2002, published 2008).
Square brackets hold non-standard residues; d marks the D form. Peptide text beside a SMILES is read from it. * marks the point of attachment. Nle = CCCC[C@H](N)C(=O)O; Cbz = O=C(OCc1ccccc1)*; CH2F = FC*

Assays:
Assay type in all cases: cell-based
[1] = system: rat hepatic stellate cells; assay: Morphology and detachment of culture-activated rat hepatic stellate cells (light microscopy); settings: rat HSC; for effect on morphologic alterations / detachment caused by gliotoxin: with 1.5 μmol/L gliotoxin, Z-VAD-FMK 100 μmol/L, PDTC 300 μmol/L, tamoxifen 100 μmol/L, m-IBG 250 (mmol/L in the source), quin-2-am 50 μmol/L
Text: Rat hepatic stellate cells (HSCs) were isolated by pronase/collagenase perfusion and purified by isopycnic density centrifugation in Opti-prep™ (Nycomed, Amersham, England) and elutriation essentially as previously described (Bahr et al., Hepatology (1999) 29:839-848). Human hepatic stellate cells were isolated from discarded resected liver via a similar protocol (Trim et al., J. Biol. Chem., (2000) 275:6657-6663). The use of human liver tissue for scientific investigation was approved by the UK South and West Local Research Ethics Committee and was subject to patient consent.
It has been shown recently that liver myofibroblasts may contribute to liver fibrogenesis and that liver myofibroblasts may have the potential to contaminate passaged hepatic stellate cell cultures (Knittel et al., Gastronenterology, (1999) 117:1205-1221). In this study, only primary cultures of hepatic stellate cells were used, which were desmin and glial fibrillary acid protein positive (markers shown to be expressed in hepatic stellate cells, but not liver myofibroblasts—Knittel et al., supra).
(§1) Cells were treated with gliotoxin dissolved in DMSO vehicle (added to medium from a 2000-fold molar concentrated stock). Control cells received DMSO vehicle only (i.e., 0.05% vol/vol). All other additions to culture medium were made from concentrated stocks dissolved in DMSO or by direct addition to culture medium. Protein contents of wells were determined using the Lowry assay (Lowry et al., J. Biol. Chem., (1951)193: 265-275).
Culture activated rat (14 day) and human (24 day) hepatic stellate cells were treated with DMSO solvent control or 1.5 μMol/L gliotoxin. […] Hepatic stellate cells changed from a flattened fibroblastic phenotype with distinct cell-cell interfaces to a substratum detached, rounded, and blebbed morphology.

[2] = system: NF-kB DNA binding activity; assay: Electromobility shift assay for NF-kB DNA binding activity in rat hepatic stellate cells; settings: activated rat HSC; for TNF-α-inducible NF-kB DNA binding activity: 10 ng/mL TNF-α, same concentrations as for constitutive activity; for constitutive NF-kB DNA binding activity: gliotoxin 1.5 μmol/L, N-acetyl cysteine 5 mM, calpain inhibitor 1 50 μM, dexamethasone 0.5 μm, pentoxyfilline 3.6 mM
Procedure: Crude high salt extractable nuclear protein was prepared from activated hepatic stellate cells for analysis of NF-kB DNA binding activity essentially as described (Elsharkawy et al., supra), aliquoted and stored at −80° C. until required. Extract protein concentrations were determined using the Lowry colorimetric assay (Lowry et al., supra) with bovine serum albumin as standard. A double stranded 5′ end labeled radiolabeled oligonucleotide [sense 5′-[…]-[…] (SEQ ID NO:1)] containing a consensus NF-kB DNA binding site as underlined (Baldwin et al., Annu. Rev. Immunol., (1996) 14:649-681) was used to determine NFkB DNA binding activity in crude nuclear extracts (Elsharkawy et al., supra).
The effect of gliotoxin on NF-kB activity in hepatic stellate cells was investigated. Culture-activated (14-day) rat hepatic stellate cells were incubated in the presence or absence of 10 ng/mL TNF-α fifteen minutes after addition of:
After a further 30 minutes, and before any significant morphologic changes, cells were washed with ice-cooled PBS, nuclear extracts prepared, and NF-kB DNA binding activity assessed by gel shift analysis. […] Each lane contained […] of protein and the results were the same for at least three separate experiments.

[3] = system: caspase 3 activity in rat hepatic stellate cells; assay: Caspase 3 (Ac-DEVD-pNA cleavage) activity in rat hepatic stellate cells; settings: 20 μmol/L Z-VAD-FMK with 1.5 μmol/L gliotoxin, three hours
Procedure: Hepatic stellate cells cultured in 100 mm diameter dishes (Greiner, Frickenhausen, Germany) were harvested and pelleted by centrifugation. The medium supernatant was discarded and the cell pellet was washed in 1 mL of ice-cooled phosphate buffered saline (PBS). Caspase 3 (DEVDase) activity was determined using a colorimetric CaspACE kit (Promega, Southampton, England) using the manufacturer's instructions.
Caspase 3 (Ac-DEVD-pNA cleavage) activity was then examined in control and gliotoxin-treated hepatic stellate cells. Culture activated rat hepatic stellate cells (14 days) in 100 mm diameter plates were treated with 0.05% (vol/vol) DMSO, 1.5 μmol/L gliotoxin, 20 μmol/L Z-VAD-FMK or 200 μmol/L chlorpromazine for three hours. The cells were then harvested for examination of caspase 3 activity as outlined in the materials and methods sections.

[4] = system: rat hepatic stellate cells; assay: Low molecular weight DNA fragmentation (nucleosomal ladder) in rat hepatic stellate cells; settings: four hours; for effect on gliotoxin-induced cleavage of DNA to a nucleosomal ladder: with 1.5 μmol/L gliotoxin, PDTC 300 μmol/L, tamoxifen 100 μmol/L, m-IBG 250 (mmol/L in the source), cyclosporin 10 μmol/L, quin-2-am 50 μmol/L
Procedure: (§2) Hepatic stellate cells cultured in 35-mm diameter dishes (Greiner) were harvested, pelleted by centrifugation and DNA fragmentation determined as outlined elsewhere (Elsharkawy et al., Hepatology (1999) 30:761-769). Propidium Iodide Flow-Activated Cell Sorting Analysis Detached cells were pelleted by centrifugation, washed in PBS, and resuspended in HYPO buffer (0.1% wt/vol) Na3Citrate and 0.1% (wt/vol) Triton™ X-100 containing […] propidium iodide and incubated for 1 hour. The cells were then analyzed by fluorescence-activated cell sorter (FACS) with a Becton Dickinson (San Jose, Calif.) FACScan instrument using a 488 nm excitation wavelength with a band pass filter set at 530 nm. Attached cells were scraped in HYPO buffer after washing cells with PBS.
The effect of gliotoxin on the cleavage of DNA to a nucleosomal ladder was examined because this phenomenon is characteristic of apoptosis. Culture activated (14-day) rat hepatic stellate cells in six well plates were treated with either 0.05% (vol/vol) DMSO for four hours or 1.5 μmol/L gliotoxin for zero hours, half an hour, one hour, two hours or four hours. At each time point, both detached and attached cells were harvested together and low molecular weight DNA (20,000 g supernatant) fragmentation determined as outlined in the materials and methods section. At least three separate experiments were performed. 1 kilobase DNA ladder (Promega) was used as a molecular weight marker.
The effect of various compounds on DNA laddering was then determined. Culture-activated (14-day) rat hepatic stellate cells in six-well plates were treated with:
After fours hours of treatment, DNA fragmentation was determined.
Culture activated (14 day) rat hepatic stellate cells in six well plates were treated with: • (a) 0.05% (vol/vol) DMSO; • (b) 1.5 μmol/L gliotoxin; • (c) 1.5 μmol/L gliotoxin with 100 μmol/L tamoxifen; • (d) 1.5 μmol/L gliotoxin with […] actinomycin d; • (e) 1.5 μmol/L gliotoxin with 10 μmol/L cycloheximide; • (f) 1.5 μmol/L gliotoxin with 10 μmol/L cyclosporin; • (g) 1.5 μmol/L gliotoxin with […] m-iodobenzylguanidine; • (h) 1.5 μmol/L gliotoxin with 50 μmol/L quin-2-am; • (i) 50 μmol/L guin-2-am alone; • (j) 250 μmol/L m-iodobenzylguanidine; • (k) 10 μmol/L cyclosporin; • (l) 10 μmol/L cycloheximide; • (m) 1 μg/ml actinomycin d; or • (n) 100 μmol/L tamoxifen.
After four hours of treatment, DNA fragmentation was determined as outlined in Materials and Methods.

[5] = system: rat hepatocytes; assay: DNA laddering in rat hepatocytes; settings: four hours; 50 μmol/L gliotoxin, 200 μmol/L chlorpromazine, 200 μmol/L methapyrilene, 10 ng/mL TNF-α with cycloheximide
Procedure: as §2
DNA laddering was also used to compare the effect of gliotoxin, chlorpromazine, methapyrilene and also the combination of TNF-α with cycloheximide on hepatocytes and hepatic stellate cells.

[6] = system: rat hepatocytes; assay: Rat hepatocyte viability by attachment and trypan blue exclusion; settings: 200 μmol/L, four hours
Procedure: Rat hepatocytes were isolated by collagenase perfusion essentially as previously described. (Harvey et al., Biochemical J., (1998) 331:273-281). Hepatocytes were cultured as outlined for hepatic stellate cells except that they were initially seeded onto collagen coated plates in William's medium E supplemented with 10% fetal calf serum and 1 μg/mL insulin for the first 2 hours.
as §1
The effect of various compounds on cell viability and attachment was determined. Viability of rat hepatocytes as judged by attachment and 0.1% (wt/vol) trypan blue exclusion after four hours treatment with: […]

CCCC[C@@H](C=O)NC(=O)[C@H](CC(C)C)NC(=O)[C@H](CC(C)C)NC(C)=O [Calpain inhibitor 1] (Ac-Leu-Leu-[Nle]-aldehyde)
apoptosis judged by morphologic and biochemical criteria (caspase 3 induction, nucleosomal ladder) ([1]; 50 μM calpain inhibitor 1): did not result in the apoptosis of rat hepatic stellate cells | TNF-α-inducible NF-kB DNA binding activity [2]: inhibited the formation and altered the mobilities | constitutive NF-kB DNA binding activity [2]: inhibited the formation and altered the mobilities

CC(=O)N[C@@H](CS)C(=O)O [N-acetyl cysteine]
TNF-α-inducible NF-kB DNA binding activity [2]: little effect | constitutive NF-kB DNA binding activity [2]: little effect

COC(=O)C[C@H](NC(=O)[C@H](C)NC(=O)[C@@H](NC(=O)OCc1ccccc1)C(C)C)C(=O)CF [Z-VAD-FMK, benzyloxycarbonyl-Val-Ala-Asp-fluoromethylketone] (Cbz-Val-Ala-Asp(OMe)-CH2F)
effect on gliotoxin-induced caspase 3 activity [3]: inhibited by cotreatment | effect on morphologic alterations / detachment caused by gliotoxin [1]: did not prevent the morphologic alterations caused by gliotoxin | inhibition of gliotoxin-induced nucleosomal ladder ([4]; Z-VAD-FMK 1 μmol/L with 1.5 μmol/L gliotoxin): substantial inhibition | inhibition of gliotoxin-induced nucleosomal ladder ([4]; Z-VAD-FMK 100 and 10 (m/L printed) with 1.5 μmol/L gliotoxin): inhibited completely

N=C(N)NCc1cccc(I)c1 [m-iodobenzylguanidine]
effect on morphologic alterations / detachment caused by gliotoxin [1]: did not prevent the detachment of hepatic stellate cells from the substratum | effect on gliotoxin-induced cleavage of DNA to a nucleosomal ladder [4]: prevented the cleavage of DNA to a nucleosomal ladder

CN(C)CCN(Cc1cccs1)c1ccccn1 [methapyrilene]
cleavage of hepatocyte DNA to a nucleosomal ladder [5]: only hepatocytes treated with TNF-α and cycloheximide cleaved their DNA to a nucleosomal ladder | hepatocytes that do not exclude trypan blue, compared with 50 μmol/L gliotoxin [6]: a level similar

CC(=O)CCCCn1c(=O)c2c(ncn2C)n(C)c1=O [pentoxyfilline]
TNF-α-inducible NF-kB DNA binding activity [2]: little effect | constitutive NF-kB DNA binding activity [2]: little effect

COc1cc(N(CC(=O)OCOC(C)=O)CC(=O)OCOC(C)=O)c2nc(COc3cc(C)ccc3N(CC(=O)OCOC(C)=O)CC(=O)OCOC(C)=O)ccc2c1 [quin-2AM]
effect on morphologic alterations / detachment caused by gliotoxin [1]: without preventing cell detachment | effect on gliotoxin-induced cleavage of DNA to a nucleosomal ladder [4]: blocks DNA cleavage

CC/C(=C(\c1ccccc1)c1ccc(OCCN(C)C)cc1)c1ccccc1 [tamoxifen]
effect on morphologic alterations / detachment caused by gliotoxin [1]: did not prevent the detachment of hepatic stellate cells from the substratum | effect on gliotoxin-induced cleavage of DNA to a nucleosomal ladder [4]: prevented the cleavage of DNA to a nucleosomal ladder
